Patent US20260315487A1, “IKK-ALPHA INHIBITORS” (Cancer Research Technology Limited, priority 2023, published 2026)

Experiments:
Type in all cases: biochemical
IKKβ = target: T1, IKKβ (Homo sapiens, UniProt O14920); test: in-house DELFIA kinase assay, IKKβ
T1 sequence (O14920 1-756): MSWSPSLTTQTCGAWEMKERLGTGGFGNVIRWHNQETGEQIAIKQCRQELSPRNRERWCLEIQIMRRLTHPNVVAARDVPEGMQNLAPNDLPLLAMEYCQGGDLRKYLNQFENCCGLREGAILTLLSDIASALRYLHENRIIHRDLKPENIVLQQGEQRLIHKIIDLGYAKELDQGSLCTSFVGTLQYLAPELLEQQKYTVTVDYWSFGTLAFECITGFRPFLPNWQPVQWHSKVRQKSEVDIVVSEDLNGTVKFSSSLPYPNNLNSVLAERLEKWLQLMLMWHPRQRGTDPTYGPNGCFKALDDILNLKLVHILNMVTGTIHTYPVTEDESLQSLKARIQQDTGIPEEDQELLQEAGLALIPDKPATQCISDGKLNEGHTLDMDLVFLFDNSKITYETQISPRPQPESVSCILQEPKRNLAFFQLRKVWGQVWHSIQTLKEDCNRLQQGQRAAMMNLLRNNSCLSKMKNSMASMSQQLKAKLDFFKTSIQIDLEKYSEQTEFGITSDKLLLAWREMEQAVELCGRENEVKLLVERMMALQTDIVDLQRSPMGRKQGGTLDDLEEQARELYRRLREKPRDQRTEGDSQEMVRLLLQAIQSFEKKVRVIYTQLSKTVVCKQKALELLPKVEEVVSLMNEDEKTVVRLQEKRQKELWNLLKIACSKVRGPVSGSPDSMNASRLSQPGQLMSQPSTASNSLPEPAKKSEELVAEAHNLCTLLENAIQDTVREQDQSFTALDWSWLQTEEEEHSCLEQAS
Source text: (§1) To examine the pyrrolo[2,3 -b]pyridines as an alternative scaffold, we adopted the AIPP core because it had similar dimensions to 1 SU909, with HBD/HBA motifs positioned at the scaffold extremities to interact with both the hinge region and the G-loop wall of IKKα, a rationale we had previously proposed as the basis for imparting selectivity. A preliminary set of AIPP derivatives was designed to explore its utility as an IKK-targeting scaffold, whilst incorporating additional functionality through which to introduce selectivity for the IKKα isoform (2-4 SU1087, SU1266 and SU1253; FIG. 3). This was achieved by initially adopting two different approaches: either appending a hydrophobic moiety to the pyrrolo[2,3 -b]pyridine motif as a fused form to afford the tricyclic derivatives 2 and 3 SU1266 and SU1087, or as a phenyl substituent to introduce flexibility with the central pyrrolo[2,3 -b]pyridine moiety in 4 SU1253 .

IKKα over IKKβ = test: selectivity for IKKα over IKKβ from the kinase assay
Source text: as §1, with “SU1253 . […] The pyrrolo[2,3 -b]pyridine was bound to the hinge region in the classical HBA/HBD motif with the GK+3 NH and C═O backbone, whilst the aminoindazole projected towards the top of the pocket to interact with the G-loop (FIG. 4A). […] In both isoforms, the 2 -phenyl moiety was oriented out from the hinge towards the exposed solvent area.” for “SU1253 .”
To shift the selectivity profile towards IKKα, we selected 4 SU1253 for structural optimization based on the notion that sigma-bond rotation between the phenyl ring and the pyrrolo[2,3 -b]pyridine would inbuild the flexibility required to engage with the three dimensional array of residues nearby to exploit differences between the two isoforms. Furthermore, this would enable the inclusion of moieties that could also project into solvent and address solubility considerations. Small groups (NH2, OH, OMe, OEt and F) were initially introduced into the phenyl ring to evaluate their impact on the selectivity profile against both IKKs (5 a-g SU1354 -SU1373, Table 2 ). Our goal was to achieve a 1:50 selectivity ratio of IKKα to IKKβ, with a minimum IKKβ inhibitory Ki of 500 nM.

IKKα = target: T2, IKKα (Homo sapiens, UniProt O15111); test: in-house DELFIA kinase assay, IKKα
T2 sequence (O15111 1-745): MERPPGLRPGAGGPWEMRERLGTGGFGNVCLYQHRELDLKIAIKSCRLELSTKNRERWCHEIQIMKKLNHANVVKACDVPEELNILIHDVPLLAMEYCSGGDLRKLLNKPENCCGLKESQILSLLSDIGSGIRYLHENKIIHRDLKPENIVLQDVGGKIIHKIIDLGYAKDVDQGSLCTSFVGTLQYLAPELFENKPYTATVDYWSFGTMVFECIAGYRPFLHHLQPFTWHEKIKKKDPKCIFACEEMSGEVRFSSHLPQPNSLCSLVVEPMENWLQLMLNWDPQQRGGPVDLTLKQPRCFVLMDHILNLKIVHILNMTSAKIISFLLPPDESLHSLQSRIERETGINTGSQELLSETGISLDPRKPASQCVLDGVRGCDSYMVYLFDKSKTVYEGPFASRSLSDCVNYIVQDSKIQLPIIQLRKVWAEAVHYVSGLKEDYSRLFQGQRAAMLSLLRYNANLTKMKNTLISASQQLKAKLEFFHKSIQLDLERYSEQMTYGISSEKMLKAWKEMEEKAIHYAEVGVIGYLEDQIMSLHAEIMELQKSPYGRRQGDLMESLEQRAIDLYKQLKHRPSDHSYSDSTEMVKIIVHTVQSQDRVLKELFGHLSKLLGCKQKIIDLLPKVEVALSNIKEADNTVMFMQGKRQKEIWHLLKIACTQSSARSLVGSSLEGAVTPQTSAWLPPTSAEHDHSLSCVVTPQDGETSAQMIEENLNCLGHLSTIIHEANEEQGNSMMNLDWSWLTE
Source text: as §1, with “SU1253 . […] The pyrrolo[2,3 -b]pyridine was bound to the hinge region in the classical HBA/HBD motif with the GK+3 NH and C═O backbone, whilst the aminoindazole projected towards the top of the pocket to interact with the G-loop (FIG. 4A). […] In both isoforms, the 2 -phenyl moiety was oriented out from the hinge towards the exposed solvent area.” for “SU1253 .”

Nc1n[nH]c2ccc(-c3ccnc4[nH]c(-c5cccc(CNC6CCCC6)c5)cc34)cc12 [5n SU1550, 5-(2-(3-((cyclopentylamino)methyl)phenyl)-1 H-pyrrolo[2,3-b]pyridin-4-yl)-1 H-indazol-3-amine]
Ki (IKKβ): 191 nM
selectivity for IKKα over IKKβ, in words (IKKα over IKKβ): tended to improve selectivity
Ki (IKKα): 10 nM

CC(C)COc1cccc(-c2cc3c(-c4ccc5[nH]nc(N)c5c4)ccnc3[nH]2)c1 [5o SU1367, 5-(2-(3 -Isobutoxyphenyl)-1 H-pyrrolo[2,3-b]pyridin-4-yl)-1 H-indazol-3-amine]
IKKβ inhibition, in words (IKKβ): lowest activity against IKKβ
Ki (IKKβ): 458 nM
selectivity for IKKα over IKKβ, in words (IKKα over IKKβ): tended to improve selectivity
Ki (IKKα): 19 nM

Nc1n[nH]c2ccc(-c3ccnc4[nH]c(-c5ccc(OCc6ccccc6)cc5)cc34)cc12 [5s SU1334]
Ki (IKKβ): 189 nM
selectivity for IKKα over IKKβ, in words (IKKα over IKKβ): tended to improve IKKβactivity to reduce selectivity
Ki (IKKα): 16 nM

Cc1ccc(S(=O)(=O)Nc2ccc(-c3cc4c(-c5ccc6[nH]nc(N)c6c5)ccnc4[nH]3)cc2)cc1 [5u SU1283, N-(4-(4-(3 -Amino-1 H-indazol-5-yl)-1 H-pyrrolo[2,3-b]pyridin-2-yl)phenyl)-4-methylbenzenesulfonamide]
Ki (IKKβ): 67 nM
selectivity for IKKα over IKKβ, in words (IKKα over IKKβ): tended to improve IKKβactivity to reduce selectivity
Ki (IKKα): 4 nM

Nc1n[nH]c2ccc(-c3ccnc4[nH]c(-c5cccc(OCCN6CCOCC6)c5)cc34)cc12 [5y SU1336, 5-(2-(3-(2 -Morpholinoethoxy)phenyl)-1 H-pyrrolo[2,3-b]pyridin-4-yl)-1 H-indazol-3-amine]
IKKβ inhibition, in words (IKKβ): good IKKβ inhibition
Ki (IKKβ): 29 nM
Ki (IKKα): 9 nM

COc1ccc(COc2cccc(-c3cc4c(-c5ccc6[nH]nc(N)c6c5)ccnc4[nH]3)c2)cc1 [5z SU1363, 5-(2-(3-((4 -Methoxybenzyl)oxy)phenyl)-1 H-pyrrolo[2,3-b]pyridin-4-yl)-1 H-indazol-3-amine]
Ki (IKKβ): 166 nM
Ki (IKKα): 43 nM

Nc1n[nH]c2ccc(-c3ccnc4[nH]c(-c5cc(F)cc(OCc6ccccc6)c5)cc34)cc12 [6a SU1371, 5-(2-(3-(Benzyloxy)-5-fluorophenyl)-1 H-pyrrolo[2,3-b]pyridin-4-yl)-1 H-indazol-3-amine]
Ki (IKKβ): 5030 nM
Ki (IKKα): 59 nM

COCCOCc1cc(OCc2ccccc2)cc(-c2cc3c(-c4ccc5[nH]nc(N)c5c4)ccnc3[nH]2)c1 [6b SU1358, 5-(2-(3-(Benzyloxy)-5-((2-methoxyethoxy)methyl)phenyl)-1 H-pyrrolo[2,3-b]pyridin-4-yl)-1 H-indazol-3-amine]
Ki (IKKβ): 1220 nM
Ki (IKKα): 29 nM

COCCNc1cc(OCc2ccccc2)cc(-c2cc3c(-c4ccc5[nH]nc(N)c5c4)ccnc3[nH]2)c1 [6c SU1365, 5-(2-(3-(Benzyloxy)-5-((2-methoxyethyl)amino)phenyl)-1 H-pyrrolo[2,3-b]pyridin-4-yl)-1 H-indazol-3-amine]
Ki (IKKβ): 1530 nM
Ki (IKKα): 26 nM

Nc1n[nH]c2ccc(-c3ccnc4[nH]c(-c5ccc(OCc6ccccc6)nc5)cc34)cc12 [6d SU1350, 5-(2-(6-(Benzyloxy)pyridin-3-yl)-1 H-pyrrolo[2,3-b]pyridin-4-yl)-1 H-indazol-3-amine]
Ki (IKKβ): 22 nM
selectivity for IKKα over IKKβ, in words (IKKα over IKKβ): reduced selectivity
Ki (IKKα): 12 nM

Nc1n[nH]c2ccc(-c3ccnc4[nH]c(-c5cncc(OCc6ccccc6)c5)cc34)cc12 [6e SU1337, 5-(2-(5-(Benzyloxy)pyridin-3-yl)-1 H-pyrrolo[2,3-b]pyridin-4-yl)-1 H-indazol-3-amine]
Ki (IKKβ): 1550 nM
Ki (IKKα): 21 nM

Nc1n[nH]c2ccc(-c3ccnc4[nH]c(-c5cc(F)nc(CNc6ccccc6)c5)cc34)cc12 [6f SU1394, 5-(2-(2 -Fluoro-6-((phenylamino)methyl)pyridin-4-yl)-1 H-pyrrolo[2,3-b]pyridin-4-yl)-1 H-indazol-3-amine]
Ki (IKKβ): 503 nM
Ki (IKKα): 33 nM

Nc1n[nH]c2ccc(-c3ccnc4[nH]c(-c5ccnc(SCc6ccccc6)c5)cc34)cc12 [6h SU1615, 5-(2-(2-(Benzylthio)pyridin-4-yl)-1 H-pyrrolo[2,3-b]pyridin-4-yl)-1 H-indazol-3-amine]
Ki (IKKβ): 1180 nM
Ki (IKKα): 5 nM

Nc1n[nH]c2ccc(-c3ccnc4[nH]c(-c5cc(F)nc(SCc6ccccc6)c5)cc34)cc12 [6i SU1380, 5-(2-(2-(Benzylthio)-6-fluoropyridin-4-yl)-1 H-pyrrolo[2,3-b]pyridin-4-yl)-1 H-indazol-3-amine]
Ki (IKKβ): 3000 nM
Ki (IKKα): 127 nM

Nc1n[nH]c2ccc(-c3ccnc4[nH]c(-c5cc(OCc6ccccc6)ccn5)cc34)cc12 [6j SU1602, 5-(2-(4-(Benzyloxy)pyridin-2-yl)-1 H-pyrrolo[2,3-b]pyridin-4-yl)-1 H-indazol-3-amine]
Ki (IKKβ): 2300 nM
Ki (IKKα): 25 nM

Nc1n[nH]c2ccc(-c3ccnc4[nH]c(-c5ccnc(OCCc6ccccc6)c5)cc34)cc12 [6l SU1621, 5-(2-(2 -Phenethoxypyridin-4-yl)-1 H-pyrrolo[2,3-b]pyridin-4-yl)-1 H-indazol-3-amine]
Ki (IKKβ): 1600 nM
Ki (IKKα): 42 nM
